# Test results from patent US9173892B2, “Acadesine derivatives, products and compositions including same, therapeutic uses thereof, and methods for synthesizing same” (Universite Nice Sophia Antipolis, priority 2011, dated 2015).
# pIC50: −log10 of the molar value. Where two headings read alike, the source gives them in different places.
# How the values were obtained:
# caspase-9 [1] = experiment: caspase-9 activity (Ac-LEHD-AMC) in K562 cells; format: cell-based, human; details: for caspase-9 activity: K562, 24 hours, imatinib 3 μM, 112 2.5 μM, 15 and 23 10 μM; for pathway relaying the induced apoptosis: conclusion of Example 1, K562 and ImaR cells
# Method: (§1) The cells are lyzed and the caspase-9 activities are measured using 10 μg of proteins and Ac-LEHD-AMC. The fluorescence emission at 460 nm resulting from the release of AMC is then recorded.
# ImaR cells [2] = experiment: cell viability (XTT) of imatinib-resistant ImaR cells; format: cell-based, human; details: for efficacy in dose-response experiment (number of viable cells): 5, 10, 25 and 50 μM, compounds effective at concentrations as low as 5 μM; for viability at 500 µM / pIC50: Homo sapiens, XTT; for viability at 500 µM: 0.5 mM, 24 hours, read-out: percentage of viable cells; for pIC50: dose-response 5, 10, 25 and 50 μM, 24 or 48 hours, Example 1 (Table 1 codes)
# Method: (§2) The K562 leukemic cell line is obtained from the pleural effusion of a patient with CML. This line is a good model for studying this disease. […] The K562 and ImaR cells are cultivated at 37° C. under 5% CO2 in an RPMI 1640 medium containing 5% fetal bovine serum and supplemented with sodium pyruvate and antibiotics (penicillin-streptomycin).
# (§3) FIGS. 1 to 4 reflect the study of the cell viability.
# (§4) After the addition of XTT reagent, the absorbance is measured at 490 nm.
# as §4
# ImaR cells [3] = experiment: western blot of apoptosis and autophagy markers, ImaR cells; format: cell-based, human; details: 24 hours; for expression of p62/SQSTM1: AICAR 1 mM, 82, 86, 112 at 2.5 μM, 15, 23, 191 at 10 μM; for LC3 cleavage (LC3-I into LC3-II): AICAR 1 mM, 82, 86 at 2.5 μM, 15, 23, 191, 49 at 10 μM; for PARP cleavage (fragment at 85 kDa): imatinib 3 μM, 112 at 2.5 μM, 15, 23, 49 at 10 μM
# Method: (§5) The cells are lyzed and 35 μg of proteins are separated by SDS-PAGE (12 or 14% polyacrylamide gel) and analyzed by western blot with antibodies specific to each of the markers.
# K562 cells [4] = experiment: cell viability (XTT) of imatinib-sensitive K562 cells; format: cell-based, human; details: K562; for viability at 500 µM / pIC50: Homo sapiens, XTT; for viability at 500 µM: 0.5 mM, read-out: percentage of viable cells; for pIC50: dose-response 5, 10, 25 and 50 μM; for efficacy in dose-response experiment (number of viable cells): 5, 10, 25 and 50 μM, compounds effective at concentrations as low as 5 μM
# Method: as §2, §3, §4, §4, §4
# After adding XTT reagent, the absorbance is measured at 490 nm.
# ImaR cells [5] = experiment: flow cytometry analysis of the cell cycle, ImaR cells; format: cell-based, human; details: for proportion of cells in the G2/M phase: 24 hours, 82, 86, 112 at 2.5 μM, 15, 23, 191, 49 at 10 μM; for cells in phase G0/G1 / cells in the subG1 phase: 24 hours, imatinib 3 μM, 112 at 2.5 μM, 15, 23, 49 at 10 μM
# Method: (§6) The x-axis of the graph of FIG. 9 corresponds to the quantity of DNA marked with propidium iodide while the y-axis corresponds to the number of cells. […] The nucleii are marked with propidium iodide, then the proportion of cells in the different phases of the cell cycle (subG1, G0/G1, S, G2/M) is determined.
# K562 cells [6] = experiment: western blot of apoptosis and autophagy markers, K562 cells; format: cell-based, human; details: for expression of p62/SQSTM1 / LC3 cleavage (LC3-I into LC3-II) / PARP cleavage (fragment at 85 kDa): K562, 24 hours; for expression of p62/SQSTM1 / LC3 cleavage (LC3-I into LC3-II): AICAR 1 mM; for expression of p62/SQSTM1: 82, 86, 112 at 2.5 μM, 15, 23, 191 at 10 μM; for LC3 cleavage (LC3-I into LC3-II): 82, 86 at 2.5 μM, 15, 23, 191, 49 at 10 μM; for PARP cleavage (fragment at 85 kDa): imatinib 3 μM, 112 at 2.5 μM, 15, 23, 49 at 10 μM; for type of programmed cell death induced: conclusion of Example 1, K562 and ImaR cells
# Method: as §5
# caspase-9 [7] = experiment: caspase-9 activity (Ac-LEHD-AMC) in ImaR cells; format: cell-based, human; details: 24 hours, imatinib 3 μM, 112 2.5 μM, 15 and 23 10 μM
# Method: as §1
# K562 cells [8] = experiment: flow cytometry analysis of the cell cycle, K562 cells; format: cell-based, human; details: for proportion of cells in the G2/M phase: 24 hours, 82, 86, 112 at 2.5 μM, 15, 23, 191, 49 at 10 μM; for cells in phase G0/G1 / cells in the subG1 phase: 24 hours, imatinib 3 μM, 112 at 2.5 μM, 15, 23, 49 at 10 μM
# Method: as §6, with “nuclei” for “nucleii”
# [9] = system: imatinib-resistant CML K562 cells; experiment: tumor growth of imatinib-resistant CML K562 cells in athymic nude mice; format: in vivo; details: 1 mg/kg; for Mean weight of the mice on the day of sacrifice: control group 18.63, in g (unit assumed); for Mass of tumors at the end of the campaign (% vs. control): sum of tumor masses on the day of sacrifice
# Method: The three compounds (86, 196 and 236) were tested at 1 mg/kg on the tumor growth of imatinib-resistant CML K562 cells in athymic nude mice. The tumors of the mice of each group are weighed on the day of sacrifice, and the sum of these masses constitutes a tumor growth index. This index is expressed as a percentage with respect to the growth of the control group (second line).
# [10] = 24 or 48 hours, Example 1 (Table 1 codes)
# [11] = 48 hours, Example 2 (Table 2 codes)
smiles,measurement,setting,value
"CCOC(=O)c1nnn([C@@H]2O[C@H](COC(C)=O)[C@@H](OC(C)=O)[C@H]2OC(C)=O)c1Cl [Compound 15, 1′-(4-ethoxycarbonyl-5-chloro-[1,2,3]-triazol-1-yl)-2′,3′,5′-tri-O-acetyl-β-D-ribofuranose]",caspase-9 activity,caspase-9 [1],activation
same,pathway relaying the induced apoptosis,caspase-9 [1],intrinsic pathway
same,efficacy in dose-response experiment (number of viable cells),ImaR cells [2],particularly effective
same,viability at 500 µM,ImaR cells [2],< 10%
same,pIC50,ImaR cells [2],~5.00
same,expression of p62/SQSTM1,ImaR cells [3],increase in the expression
same,LC3 cleavage (LC3-I into LC3-II),ImaR cells [3],cleaved
same,PARP cleavage (fragment at 85 kDa),ImaR cells [3],appearance of the characteristic cleavage fragment at 85 kDa
same,viability at 500 µM,K562 cells [4]; 24 hours,< 10%
same,pIC50,K562 cells [4]; [10],~5.00
same,efficacy in dose-response experiment (number of viable cells),K562 cells [4],particularly effective
same,proportion of cells in the G2/M phase,ImaR cells [5],increase
same,cells in phase G0/G1,ImaR cells [5],reduction
same,cells in the subG1 phase,ImaR cells [5],very pronounced accumulation
same,expression of p62/SQSTM1,K562 cells [6],increase in the expression
same,LC3 cleavage (LC3-I into LC3-II),K562 cells [6],cleaved
same,PARP cleavage (fragment at 85 kDa),K562 cells [6],appearance of the characteristic cleavage fragment at 85 kDa
same,type of programmed cell death induced,K562 cells [6],combination of the two types of mechanisms
same,caspase-9 activity,caspase-9 [7],activation
same,proportion of cells in the G2/M phase,K562 cells [8],increase
same,cells in phase G0/G1,K562 cells [8],reduction
same,cells in the subG1 phase,K562 cells [8],very pronounced accumulation
"COC(=O)c1nnn([C@@H]2O[C@H](CO)[C@@H](O)[C@H]2O)c1I [Compound 21, 1′-(4-methoxycarbonyl-5-iodo-[1,2,3]-triazol-1-yl)-β-D-ribofuranose]",viability at 500 µM,K562 cells [4]; [11],< 20%
same,pIC50,K562 cells [4]; [11],~5.30
CCOC(=O)c1nnn(Cc2ccc3ccccc3c2)c1I [Compound 23],viability at 500 µM,ImaR cells [2],< 10%
same,pIC50,ImaR cells [2],~5.00
same,viability at 500 µM,K562 cells [4]; 24 hours,< 10%
same,pIC50,K562 cells [4]; [10],~5.00
same,pIC50,K562 cells [4]; [11],~5.30
"OC[C@H]1O[C@@H](n2nnc(-c3ccccc3)c2I)[C@H](O)[C@@H]1O [Compound 24, 1′-(4-phenyl-5-iodo-[1,2,3]-triazol-1-yl)-β-D-ribofuranose]",pIC50,K562 cells [4]; [11],~5.30
CCOC(=O)C#Cc1c(C(=O)OCC)nnn1Cc1ccc2ccccc2c1 [Compound 25],viability at 500 µM,ImaR cells [2],< 10%
same,viability at 500 µM,K562 cells [4]; 24 hours,< 10%
"C#Cc1c(C(=O)OC)nnn1[C@@H]1O[C@H](CO)[C@@H](O)[C@H]1O [Compound 29, 1′-(4-methoxycarbonyl-5-ethynyl-[1,2,3]-triazol-1-yl)-β-D-ribofuranose]",viability at 500 µM,K562 cells [4]; [11],< 20%
"CCCCCCC(=O)c1c(C(=O)OCC)nnn1[C@@H]1O[C@H](COC(C)=O)[C@@H](OC(C)=O)[C@H]1OC(C)=O [Compound 30, 1′-(4-ethoxycarbonyl-5-heptanoyl-[1,2,3]-triazol-1-yl)-2′,3′,5′-tri-O-acetyl-β-D-ribofuranose]",pIC50,K562 cells [4]; [11],~5.30
"CCOC(=O)c1nnn([C@@H]2O[C@H](COC(C)=O)[C@@H](OC(C)=O)[C@H]2OC(C)=O)c1C(=O)c1ccc(C)cc1 [Compound 32, 1′-(4-ethoxycarbonyl-5-p-toluoyl-[1,2,3]-triazol-1-yl)-2′,3′,5′-tri-O-acetyl-β-D-ribofuranose]",viability at 500 µM,K562 cells [4]; [11],< 20%
"CCOC(=O)c1nnn([C@@H]2O[C@H](COC(C)=O)[C@@H](OC(C)=O)[C@H]2OC(C)=O)c1-c1ccccc1 [Compound 86, 1′-(4-ethoxycarbonyl-5-phenyl-[1,2,3]-triazol-1-yl)-2′,3′,5′-tri-O-acetyl-β-D-ribofuranose]",efficacy in dose-response experiment (number of viable cells),ImaR cells [2],particularly effective
same,viability at 500 µM,ImaR cells [2],< 10%
same,pIC50,ImaR cells [2],~5.60
same,Mean weight of the mice on the day of sacrifice,[9],18.43
same,Mass of tumors at the end of the campaign (% vs. control),[9],69.6 % vs. control
same,expression of p62/SQSTM1,ImaR cells [3],increase in the expression
same,LC3 cleavage (LC3-I into LC3-II),ImaR cells [3],cleaved
same,viability at 500 µM,K562 cells [4]; 24 hours,< 10%
same,pIC50,K562 cells [4]; [10],~5.60
same,efficacy in dose-response experiment (number of viable cells),K562 cells [4],particularly effective
same,proportion of cells in the G2/M phase,ImaR cells [5],increase
same,expression of p62/SQSTM1,K562 cells [6],increase in the expression
same,LC3 cleavage (LC3-I into LC3-II),K562 cells [6],cleaved
same,type of programmed cell death induced,K562 cells [6],autophagy alone
same,proportion of cells in the G2/M phase,K562 cells [8],increase
"CCOC(=O)C#Cc1c(C(=O)OCC)nnn1Cc1ccc(C)cc1 [Compound 112, 1-(4-methylbenzyl)-4-ethoxycarbonyl-5-ethyl propiolate-1,2,3-triazole]",caspase-9 activity,caspase-9 [1],activation
same,pathway relaying the induced apoptosis,caspase-9 [1],intrinsic pathway
same,efficacy in dose-response experiment (number of viable cells),ImaR cells [2],particularly effective
same,viability at 500 µM,ImaR cells [2],< 10%
same,pIC50,ImaR cells [2],~5.60
same,expression of p62/SQSTM1,ImaR cells [3],increase in the expression
same,PARP cleavage (fragment at 85 kDa),ImaR cells [3],appearance of the characteristic cleavage fragment at 85 kDa
same,viability at 500 µM,K562 cells [4]; 24 hours,< 10%
same,pIC50,K562 cells [4]; [10],~5.60
same,efficacy in dose-response experiment (number of viable cells),K562 cells [4],particularly effective
same,cells in phase G0/G1,ImaR cells [5],reduction
same,cells in the subG1 phase,ImaR cells [5],very pronounced accumulation
same,expression of p62/SQSTM1,K562 cells [6],increase in the expression
same,PARP cleavage (fragment at 85 kDa),K562 cells [6],appearance of the characteristic cleavage fragment at 85 kDa
same,type of programmed cell death induced,K562 cells [6],apoptosis alone
same,caspase-9 activity,caspase-9 [7],activation
same,cells in phase G0/G1,K562 cells [8],reduction
same,cells in the subG1 phase,K562 cells [8],very pronounced accumulation
"CCCCCCCC#Cc1c(CCCCCCC)nnn1[C@@H]1O[C@H](COC(C)=O)[C@@H](OC(C)=O)[C@H]1OC(C)=O [Compound 176, 1′-(4-heptyl-5-(non-1-yn-1-yl)-[1,2,3]-triazol-1-yl)-2′,3′,5′-tri-O-acetyl-β-D-ribofuranose]",viability at 500 µM,ImaR cells [2],< 10%
same,viability at 500 µM,K562 cells [4]; 24 hours,< 10%
"CCOC(=O)C#Cc1c(C(=O)OCC)nnn1C1OC(COC(C)=O)C(OC(C)=O)C(OC(C)=O)C1OC(C)=O [Compound 196, 1′-(4-ethoxycarbonyl-5-ethyl propiolate-[1,2,3]-triazol-1-yl)-2′,3′,4′,6′-tetra-O-acetyl-β-D-glucopyranose]",inhibition of the tumor mass,[9],around 60%
same,Mean weight of the mice on the day of sacrifice,[9],20.5
same,Mass of tumors at the end of the campaign (% vs. control),[9],42 % vs. control
"CCOC(=O)c1nnn([C@@H]2O[C@H](CO)[C@H]3OC(C)(C)O[C@H]32)c1-c1cccs1 [Compound 236, 1′-(4-ethoxycarbonyl-5-(2-thienyl)-[1,2,3]-triazol-1-yl)-2′,3′-O-isopropylidene-β-D-ribofuranose]",Mean weight of the mice on the day of sacrifice,[9],20.14
same,Mass of tumors at the end of the campaign (% vs. control),[9],60.3 % vs. control
